Test results from patent US6926763B2, “Purine and isosteric antibacterial compounds” (GLSynthesis, Inc., priority 2002, dated 2005).
≈ marks a conversion by molar mass, not a printed value. Where two headings read alike, the source gives them in different places.

Legend:
B.s. pol IIIC = B.s. pol IIIC (Bacillus subtilis, UniProt P13267); experiment: biochemical; assay type: biochemical
Description: (§1) The ability of a test compound to inhibit the activity of DNA pol IIIC or pol IIIE enzymes can be tested by using a DNA polymerase assay as described, for example, in Barnes and Brown, Nucl. […] This rapid screening method can use natural or recombinant DNA pol III enzymes in a standard DNA polymerase activity assay. By including a test compound in a side-by-side assay with a control, the effect of the test compound on polymerase activity can be assessed.
(§2) DNA pol III activity was assayed as described in Barnes et al., Nucl.
(§3) Purified pol IIIC or pol IIIE was added to a buffered solution containing Mg^2+, DTT, glycerol, nicked calf thymus DNA, saturating concentrations of dATP, dCTP, dTTP and [^3H]-dTTP. Reaction mixtures were incubated at 30° C. for 10 min, quenched and filtered, and radioactivity in the acid-insoluble material measured by scintillation counting. Experiments were done in triplicate. Inhibitors were assayed by addition of several dilutions of a stock solution of inhibitor (DMSO or water, depending on solubility) before enzyme addition. […] The truncated assay, i.e., exclusion of the competitive substrate dGTP allows for the direct determination of apparent inhibitor constants (Ki) in this assay system.

B.s. pol IIIE = B.s. pol IIIE (Bacillus subtilis, UniProt O34623); experiment: biochemical; assay type: biochemical
Description: as §1, §2, §3

E.c. pol IIIE = E.c. pol IIIE (Escherichia coli, UniProt P10443); experiment: biochemical
Description: as §1, §2, §3

Bacillus subtilis = experiment: Inhibition of bacterial growth (agar plate MIC), B.s.; assay type: cell-based; conditions: agar plates, 37° C., 24 hours; for MIC: Bacillus subtilis
Description: (§4) Antimicrobial efficacy may be determined by standard methods of microbial culture in growth medium or on plates of agar supplemented with appropriate growth media. For example, microbes, e.g., mycoplasmata or Gram-positive or Gram-negative bacteria, are grown in the presence of serial dilutions of compounds in an appropriate vehicle, and, after a suitable period of growth, the microbial density is measured by visual or instrumental means. The concentration of compound at which no growth occurs is the minimum inhibitory concentration (MIC) of the compound. Test compounds with an appropriate level of growth inhibition are good candidate therapeutics for further evaluation.
(§5) Each compound was assayed against a panel of Gram-positive Bacilli, Enterococci, and Staphylococci, and Gram-negative Escherichia coli, grown in appropriate plate media solidified with 1.3% agar-agar. […] One tenth mL of diluted bacteria containing 500-1000 colony-forming units (CFU) were plated and spread, and the plates were incubated at 37° C. for 24 hours. MIC (minimum inhibitory concentration) was equivalent to the lowest concentration at which growth, i.e. colony formation, was not observed.

Staphylococcus aureus = experiment: Inhibition of bacterial growth (agar plate MIC), S.a.; assay type: cell-based; conditions: agar plates, 37° C., 24 hours; for MIC: Staphylococcus aureus
Description: as §4, §5

S.a. (Smith) = experiment: Inhibition of bacterial growth (agar plate MIC), S.a. (Smith); assay type: cell-based, Staphylococcus aureus; conditions: agar plates, 37° C., 24 hours; for MIC: Staphylococcus aureus
Description: as §4, §5

MRSA (B42876) = experiment: Inhibition of bacterial growth (agar plate MIC), MRSA (B42876); assay type: cell-based, methicillin-resistant S.a.; conditions: agar plates, 37° C., 24 hours; for MIC: Staphylococcus aureus, MRSA
Description: as §4, §5

Enterococcus fecalis = experiment: Inhibition of bacterial growth (agar plate MIC), E. fecalis; assay type: cell-based; conditions: agar plates, 37° C., 24 hours; for MIC: Enterococcus
Description: as §4, §5

Enterococcus fecium = experiment: Inhibition of bacterial growth (agar plate MIC), E. fecium; assay type: cell-based; conditions: agar plates, 37° C., 24 hours; for MIC: Enterococcus
Description: as §4, §5

[1] = system: vancomycin-resistant E. fecium; experiment: Inhibition of bacterial growth (agar plate MIC), VRE; assay type: cell-based, Enterococcus fecium; conditions: agar plates, 37° C., 24 hours
Description: as §4, §5

in vitro = in vitro ADME; conditions: human, Caco-2
Description: Table 2 summarizes the results of cell membrane permeability assays of representative compounds of the invention. The assay utilizes CaCo2 cell culture monolayers, described by Artursson and Kalsson, Biochem. Biophys. Res.

[2] = truncated assay without dGTP, apparent Ki, read-out: Ki, B.s. pol IIIC
[3] = truncated assay without dGTP, apparent Ki, read-out: Ki, B.s. pol IIIE
[4] = truncated assay without dGTP, apparent Ki

Sequence of B.s. pol IIIE (O34623 whole entry): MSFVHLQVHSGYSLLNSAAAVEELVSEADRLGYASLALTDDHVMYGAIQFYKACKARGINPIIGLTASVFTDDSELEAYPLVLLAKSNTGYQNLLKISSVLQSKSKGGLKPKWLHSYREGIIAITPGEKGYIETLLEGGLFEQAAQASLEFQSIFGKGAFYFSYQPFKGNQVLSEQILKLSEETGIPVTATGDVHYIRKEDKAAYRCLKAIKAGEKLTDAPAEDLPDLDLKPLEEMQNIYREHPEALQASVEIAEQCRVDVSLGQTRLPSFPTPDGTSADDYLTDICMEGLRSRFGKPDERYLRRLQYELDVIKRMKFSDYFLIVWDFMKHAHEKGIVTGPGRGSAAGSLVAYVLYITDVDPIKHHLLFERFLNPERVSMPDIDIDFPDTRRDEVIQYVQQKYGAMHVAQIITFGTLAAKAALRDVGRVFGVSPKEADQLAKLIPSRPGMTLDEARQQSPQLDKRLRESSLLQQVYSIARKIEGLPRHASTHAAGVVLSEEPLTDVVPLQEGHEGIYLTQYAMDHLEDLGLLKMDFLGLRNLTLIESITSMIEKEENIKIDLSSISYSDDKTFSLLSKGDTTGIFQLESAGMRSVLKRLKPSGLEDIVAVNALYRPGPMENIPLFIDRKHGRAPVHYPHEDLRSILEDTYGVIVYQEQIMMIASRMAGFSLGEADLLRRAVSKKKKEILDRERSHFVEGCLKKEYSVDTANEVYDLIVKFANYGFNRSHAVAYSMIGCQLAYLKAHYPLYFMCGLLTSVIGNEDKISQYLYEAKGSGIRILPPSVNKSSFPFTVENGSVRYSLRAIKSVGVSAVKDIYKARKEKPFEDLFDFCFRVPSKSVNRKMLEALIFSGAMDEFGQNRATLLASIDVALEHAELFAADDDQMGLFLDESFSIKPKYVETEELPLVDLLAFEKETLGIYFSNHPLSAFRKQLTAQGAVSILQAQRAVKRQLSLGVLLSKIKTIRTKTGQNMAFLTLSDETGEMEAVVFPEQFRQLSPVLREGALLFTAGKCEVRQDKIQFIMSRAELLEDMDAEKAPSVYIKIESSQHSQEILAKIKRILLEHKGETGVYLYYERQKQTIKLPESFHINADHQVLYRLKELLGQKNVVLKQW
Sequence of B.s. pol IIIC (P13267 whole entry): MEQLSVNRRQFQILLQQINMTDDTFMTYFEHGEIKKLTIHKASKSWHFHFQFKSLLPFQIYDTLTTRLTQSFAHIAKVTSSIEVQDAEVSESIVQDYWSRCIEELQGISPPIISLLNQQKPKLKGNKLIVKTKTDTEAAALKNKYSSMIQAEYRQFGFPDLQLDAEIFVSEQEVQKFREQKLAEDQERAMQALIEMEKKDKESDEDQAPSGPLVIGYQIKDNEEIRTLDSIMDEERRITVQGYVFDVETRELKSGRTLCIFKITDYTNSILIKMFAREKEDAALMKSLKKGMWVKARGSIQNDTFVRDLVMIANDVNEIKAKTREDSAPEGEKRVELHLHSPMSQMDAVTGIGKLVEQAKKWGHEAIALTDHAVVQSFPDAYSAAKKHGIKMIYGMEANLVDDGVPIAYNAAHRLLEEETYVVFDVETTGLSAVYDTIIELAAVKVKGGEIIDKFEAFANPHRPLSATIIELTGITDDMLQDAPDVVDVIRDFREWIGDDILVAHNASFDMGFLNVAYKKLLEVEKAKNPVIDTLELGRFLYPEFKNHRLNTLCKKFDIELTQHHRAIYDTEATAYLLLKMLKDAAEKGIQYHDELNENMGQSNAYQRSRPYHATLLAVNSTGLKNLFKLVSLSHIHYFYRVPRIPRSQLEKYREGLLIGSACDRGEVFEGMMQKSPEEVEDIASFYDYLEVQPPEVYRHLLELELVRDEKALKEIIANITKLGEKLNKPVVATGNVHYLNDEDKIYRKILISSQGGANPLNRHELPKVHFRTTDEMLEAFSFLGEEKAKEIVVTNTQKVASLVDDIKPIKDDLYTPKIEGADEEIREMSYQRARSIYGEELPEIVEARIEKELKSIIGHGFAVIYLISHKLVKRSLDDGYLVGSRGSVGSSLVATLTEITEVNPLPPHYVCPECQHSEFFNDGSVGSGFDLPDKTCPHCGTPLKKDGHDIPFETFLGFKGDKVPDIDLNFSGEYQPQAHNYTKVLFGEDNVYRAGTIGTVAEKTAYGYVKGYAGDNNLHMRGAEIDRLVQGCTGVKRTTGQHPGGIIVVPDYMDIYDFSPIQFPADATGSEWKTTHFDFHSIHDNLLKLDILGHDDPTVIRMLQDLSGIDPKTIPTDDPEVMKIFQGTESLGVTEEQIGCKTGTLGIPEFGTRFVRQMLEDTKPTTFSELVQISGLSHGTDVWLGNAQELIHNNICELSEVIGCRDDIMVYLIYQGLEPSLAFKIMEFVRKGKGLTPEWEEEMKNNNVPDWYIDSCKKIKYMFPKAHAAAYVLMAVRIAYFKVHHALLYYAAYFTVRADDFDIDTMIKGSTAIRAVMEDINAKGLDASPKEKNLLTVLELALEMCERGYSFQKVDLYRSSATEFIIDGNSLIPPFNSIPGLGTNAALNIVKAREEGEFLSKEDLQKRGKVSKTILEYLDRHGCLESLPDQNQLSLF
Sequence of E.c. pol IIIE (P10443 whole entry): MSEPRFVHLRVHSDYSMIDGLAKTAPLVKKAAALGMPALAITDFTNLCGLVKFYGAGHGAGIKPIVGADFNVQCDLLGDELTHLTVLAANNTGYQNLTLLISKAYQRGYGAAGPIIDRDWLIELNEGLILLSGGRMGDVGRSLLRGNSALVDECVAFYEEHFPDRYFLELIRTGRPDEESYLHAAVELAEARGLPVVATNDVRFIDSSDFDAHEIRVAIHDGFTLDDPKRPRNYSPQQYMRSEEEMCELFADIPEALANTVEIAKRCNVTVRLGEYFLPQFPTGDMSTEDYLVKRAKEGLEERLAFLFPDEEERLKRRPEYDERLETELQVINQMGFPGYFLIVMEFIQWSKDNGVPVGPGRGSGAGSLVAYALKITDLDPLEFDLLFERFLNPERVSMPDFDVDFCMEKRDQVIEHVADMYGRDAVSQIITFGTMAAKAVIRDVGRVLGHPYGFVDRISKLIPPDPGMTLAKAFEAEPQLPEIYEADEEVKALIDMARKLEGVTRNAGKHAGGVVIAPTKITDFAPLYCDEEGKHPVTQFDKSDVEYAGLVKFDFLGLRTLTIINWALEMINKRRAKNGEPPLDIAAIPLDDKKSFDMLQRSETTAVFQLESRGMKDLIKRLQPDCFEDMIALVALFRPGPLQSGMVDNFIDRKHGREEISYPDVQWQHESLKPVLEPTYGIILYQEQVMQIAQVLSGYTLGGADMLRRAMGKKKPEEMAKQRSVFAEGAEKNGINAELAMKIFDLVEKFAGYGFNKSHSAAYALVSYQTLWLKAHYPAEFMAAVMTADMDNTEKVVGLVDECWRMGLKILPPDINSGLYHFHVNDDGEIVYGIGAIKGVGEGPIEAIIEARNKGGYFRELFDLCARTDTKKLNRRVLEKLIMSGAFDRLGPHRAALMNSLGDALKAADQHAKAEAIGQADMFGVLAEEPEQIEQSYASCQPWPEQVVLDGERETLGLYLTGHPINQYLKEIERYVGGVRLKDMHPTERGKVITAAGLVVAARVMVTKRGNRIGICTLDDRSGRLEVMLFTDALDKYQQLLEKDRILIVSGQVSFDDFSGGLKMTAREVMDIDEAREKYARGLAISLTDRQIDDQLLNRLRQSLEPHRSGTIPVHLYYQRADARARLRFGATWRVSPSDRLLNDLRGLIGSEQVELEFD

Structure (SMILES)	Ki (B.s. pol IIIC; [2])	MIC, B.s. (Bacillus subtilis)	MIC, S.a. (Staphylococcus aureus)	MIC, S.a. (Smith) (S.a. (Smith))	MIC, MRSA (B42876) (MRSA (B42876))	MIC, E. fecalis (Enterococcus fecalis)	MIC, E. fecium (Enterococcus fecium)	MIC, VRE [1]	MIC (Bacillus subtilis)	MIC (MRSA (B42876))	MIC (Enterococcus fecalis)	MIC (Enterococcus fecium)	MIC (Staphylococcus aureus)	Papp (in vitro)	other results
O=c1[nH]c(NCc2ccc(Cl)c(Cl)c2)cc2[nH]cnc12 [Compound 1, 2-(3,4-Dichlorobenzylamino)-6-oxo-3-deazapurine]	2200 nM	40 µg/mL (≈ 129 µM)	80 µg/mL (≈ 259 µM)	80 µg/mL (≈ 259 µM)	80 µg/mL (≈ 259 µM)	80 µg/mL (≈ 259 µM)	40 µg/mL (≈ 129 µM)	40 µg/mL (≈ 129 µM)							Ki (B.s. pol IIIE; [3]): 2500 nM; Ki (E.c. pol IIIE; truncated assay without dGTP, apparent Ki, read-out: Ki, E.c. pol IIIE): 176000 nM
O=c1[nH]c(NCc2ccc(Cl)c(Cl)c2)nc2ncn(CCCCO)c12 [Compound 8, 7-(4-Hydroxybutyl)-2-(3,4-dichlorobenzylamino)-6-oxopurine]	190 nM								15 µg/mL (≈ 39.2 µM)	30 µg/mL (≈ 78.5 µM)	10 µg/mL (≈ 26.2 µM)	7.5 µg/mL (≈ 19.6 µM)			MIC (S.a. (Smith)): 25 µg/mL (≈ 65.4 µM)
CCc1cc(Nc2nc3ncn(CCCCCOC)c3c(=O)[nH]2)ccc1C [Compound 22, 7-(5-Methoxypentyl)-2-(3-ethyl-4-methylphenylamino)-6-oxopurine]									1.25 µg/mL (≈ 3.38 µM)		5 µg/mL (≈ 13.5 µM)	10 µg/mL (≈ 27.1 µM)			Ki (B.s. pol IIIC): 260 nM; Ki (B.s. pol IIIE): 394000 nM
O=c1[nH]c(NCc2ccc(Cl)c(Cl)c2)cc2ncn(CCCCN3CCOCC3)c12 [Compound 4, 2-(3,4-Dichlorobenzylamino)-6-oxo-7-(4-morpholinylbutyl)-3-deazapurine]	94 nM	7.5 µg/mL (≈ 16.7 µM)	20 µg/mL (≈ 44.4 µM)	10 µg/mL (≈ 22.2 µM)	20 µg/mL (≈ 44.4 µM)	20 µg/mL (≈ 44.4 µM)	15 µg/mL (≈ 33.3 µM)	10 µg/mL (≈ 22.2 µM)							Ki (B.s. pol IIIE; [3]): 200 nM
CCc1cc(Nc2cc3ncn(CCCCN4CCOCC4)c3c(=O)[nH]2)ccc1C [Compound 16, 2-(3-Ethyl-4-methylphenylamino)-6-oxo-7-(4-morpholinylbutyl)-3-deazapurine]	1100 nM	10 µg/mL (≈ 24.4 µM)	40 µg/mL (≈ 97.7 µM)	40 µg/mL (≈ 97.7 µM)	30 µg/mL (≈ 73.3 µM)	>80 µg/mL	20 µg/mL (≈ 48.8 µM)	>80 µg/mL							Ki, B.s. pol IIIE (B.s. pol IIIE; [4]): inact; Ki, E.c. pol IIIE (E.c. pol IIIE; [4]): inact
O=c1[nH]c(NCc2ccc(Cl)c(Cl)c2)nc2ncn(CCCCCI)c12 [Compound 13, 7-(5-Iodopentyl)-2-(3,4-dichlorobenzylamino)-6-oxopurine]									1.4 µg/mL (≈ 2.77 µM)	1.25 µg/mL (≈ 2.47 µM)	2.5 µg/mL (≈ 4.94 µM)	2.5 µg/mL (≈ 4.94 µM)	3.7 µg/mL (≈ 7.31 µM)		Ki (B.s. pol IIIC): 70 nM; Ki (B.s. pol IIIE): 88 nM; Ki (E.c. pol IIIE): 47000 nM; MIC (S.a. (Smith)): 3.7 µg/mL (≈ 7.31 µM); MIC ([1]; Enterococcus, VRE): 2.5 µg/mL (≈ 4.94 µM)
O=c1[nH]c(NCc2ccc(Cl)c(Cl)c2)nc2ncn(CCCCN3CCOCC3)c12 [Compound 10, 7-[4-(N-Morpholinyl)butyl]-2-(3,4-dichlorobenzylamino)-6-oxopurine]	51 nM										10 µg/mL (≈ 22.2 µM)	10 µg/mL (≈ 22.2 µM)	20 µg/mL (≈ 44.3 µM)	0.01 ×10⁻⁶ cm/s	
CCc1cc(Nc2nc3ncn(CCCCCO)c3c(=O)[nH]2)ccc1C [Compound 20, 7-(5-Hydroxypentyl)-2-(3-ethyl-4-methylphenylamino)-6-oxopurine]	280 nM									20 µg/mL (≈ 56.3 µM)	10 µg/mL (≈ 28.1 µM)	10 µg/mL (≈ 28.1 µM)		0.62 ×10⁻⁶ cm/s	
CC(=O)OCCCCCn1cnc2nc(NCc3ccc(Cl)c(Cl)c3)[nH]c(=O)c21 [Compound 11, 7-(5-Acetoxypentyl)-2-(3,4-dichlorobenzylamino)-6-oxopurine]	52 nM										1.25 µg/mL (≈ 2.85 µM)	1.25 µg/mL (≈ 2.85 µM)	2.5 µg/mL (≈ 5.7 µM)		
CNC(=C[N+](=O)[O-])NCCSCc1ccc(CN(C)C)o1 [Ranitidine, reference compound]														0.27 ×10⁻⁶ cm/s	
